Assay results as given in patent US20190060340A1, “NOVEL AMINOGLYCOSIDES AND USES THEREOF IN THE TREATMENT OF GENETIC DISORDERS” (Technion Research & Development Foundation Limited, priority 2007, published 2019).
Values after ≈ are worked out from the molar mass of the structure shown. Where two headings read alike, the source gives them in different places.

Key:
[1] = tested on: R3X nonsense mutation (a premature UGA C stop codon) of the PCDH15 gene; test: In vitro suppression and translation, pDB650-R3X reporter plasmid in rabbit reticulocyte lysate coupled transcription/translation system; type: biochemical, human; conditions: for Conc. (concentration at which maximal suppression level was observed) / Supp. level (%), maximal in-vitro mutation suppression: R3X mutation; for Conc. (concentration at which maximal suppression level was observed): in vitro; for Supp. level (%), maximal in-vitro mutation suppression: 35-kDa product out of total protein; for Supp. level (%), maximal in-vitro mutation suppression / Trans. level (%): at Conc. of maximal suppression; for Trans. level (%): total protein relative to no compound
Method: Initially, Compounds 1-9 were tested for their ability to suppress this nonsense mutation in vitro, using a reporter construct carrying the R3X nonsense mutation (a premature UGA C stop codon) of the PCDH15 gene. Mutations in the PCDH15 gene which encodes protocardherin 15, cause type 1 Usher syndrome (USH1), which is characterized by profound prelingual hearing loss, vestibular areflexia, and prepubertal onset of retinitis pigmentosa (RP). Four different PCDH15 USH1-causing nonsense mutations, R3X, R245X, R643X, and R929X, have been reported in humans.
Suppression of nonsense mutations by Compounds 1-9 was tested in vitro using a reporter plasmid harboring the R3X mutation of the PCDH15 gene. To create this plasmid, the oligonucleotides 5′-[…]-3′ (SEQ ID NO: 1) and 5′-[…]-3′ (SEQ ID NO: 2) were annealed to each other and inserted into the BamHI and HindIII sites of plasmid pDB650 [6].
The resulting reporter plasmid pDB650-R3X contained a TGA C nonsense mutation between a 25-kDa polypeptide encoding open reading frame (ORF) and a 10-kDa polypeptide encoding ORF.
The plasmid was transcribed and translated in a rabbit reticulocyte lysate coupled transcription/translation system (Promega) in the presence of [^35S]-methionine, and the reaction products were separated by SDS-PAGE and quantified using Phosphorlmager analysis. The mutation suppression level was calculated as the relative proportion of the 35-kDa product out of total protein (the sum of 35-kDa and 25-kDa), and the translation level was calculated as the relative proportion of the total protein at each tested compound concentration out of the total protein without the presence of the tested compounds.
The tested concentrations of paromomycin were 0, 5, 10, 20, 30 and 40 μg/ml, tested concentrations of gentamicin were 0, 5, 10, 20, and 30 μg/ml, and the tested concentrations of Compounds 1-9 were in the range of 0-160 μg/ml.
Compound 37 was tested for its ability to suppress a nonsense mutation in-vitro, using a reporter construct carrying either R3X nonsense mutation (a premature UGA C stop codon) or R245X nonsense mutation (a premature UGA A stop codon) of the PCDH15 gene, using gentamicin, paromomycin and Compound 3 as standards and following the experimental procedures presented hereinabove.
For the rat-PGM-β-Gal in vitro readthrough system, the pDB series of reporter plasmids harbor the following elements under SP6 promoter control: an open reading frame (ORF) derived from the 5′ end of the rat PGM gene, which encodes a 25-kDa polypeptide; another small ORF, encoding the 10-kDa alpha complementation region of β-galactosidase, and terminated by tandem, in-frame stop codons (UAA UAG); located between the two ORFs is a DNA fragment derived from PCDH15 cDNA, including the tested stop mutation or the corresponding wild-type codon, and six upstream and downstream flanking codons (except for p.R3X constructs, in which there are only two upstream PCDH15-flanking codons). The fragments were created by annealing the following couples of complementary oligonucleotides:
The fragments were inserted into the BamHI and HindIII restriction sites of the pDB read-through construct. Reporter plasmids harboring each of the four nonsense mutations and the corresponding wt alleles were in vitro transcribed and translated using the TNT SP6 Coupled Reticulocyte lysate System (Promega) in the presence of [^35S]-methionine and increasing concentrations of aminoglycosides as described previously. […] The degree of suppression was calculated as the relative proportion of the 35-kDa product out of total reaction products (35-kDa and 25-kDa polypeptides). The results are averages of at least three independent experiments.

[2] = tested on: R3X (PCDH15, Usher Syndrome); test: Dual luciferase in vitro transcription/translation assay; type: biochemical, human
From the text: (§1) DNA fragments derived from the subsequent genes, including the tested stop mutation or the corresponding wild-type codon, and four upstream and downstream flanking codons (except for p.R3X constructs, in which there are only two upstream PCDH15-flanking codons) were cloned into p2Luc plasmid between renilla and firefly luciferase genes as described previously. The formed plasmids, as well as the original p2Luc plasmid containing a TGA C nonsense mutation, were transcribed and translated in vitro and the stop codon suppression efficiency was calculated as described previously.
(§2) For the dual luciferase in vitro transcription/translation assay, DNA fragments derived from PCDH15, CFTR, Dystrophin and IDUA cDNAs, including the tested stop mutation or the corresponding wild-type codon, and four upstream and downstream flanking codons (except for p.R3X constructs, in which there are only two upstream PCDH15-flanking codons) were created by annealing the couples of complementary oligonucleotides presented above.
(§3) Fragments were inserted into the SalI and SacI restriction sites of the p2Luc plasmid between renilla and firefly luciferase genes. The afforded plasmids, as well as the original p2Luc plasmid containing a TGA C nonsense mutation, were transcribed and translated using the TNT Reticulocyte Lysate Quick Coupled Transcription/Translation System (Promega™). Each transcription/translation reaction (10 μl, total volume) contained 8 μl TNT T7 Quick Master Mix, 0.2 μl methionine (1 mM), 0.8 μl DNA template (2 μg/μl), 1 μl of either water (blank) or 1 μl solution of increasing concentrations of the tested aminoglycosides in water. Luciferase activity was determined following 90 minutes incubation at 30° C. using the Dual Luciferase Reporter Assay System (Promega™). The total luminescence produced by each one of the proteins was measured separately using the FLx800 multidetection plate reader (Bio-Tek) and the stop codon suppression efficiency was calculated as described previously. The results are averages of at least three independent experiments.

[3] = tested on: original p2Luc plasmid containing a TGA C nonsense mutation; test: as above; type: biochemical
From the text: as §1, §2, §3

[4] = tested on: Escherichia coli ATCC 25922; test: Antibacterial activity, MIC by double-microdilution method; type: cell-based; conditions: for MIC: Escherichia coli
Method: (§4) In order to compare the observed aminoglycoside-induced stop codon read-through activity in mammalian cells to antibacterial activity thereof, Compounds 1-9 were further investigated as antibacterial agents against both Gram-negative (E. coli) and Gram-positive (Bacillus subtilis) bacteria, and the minimal inhibitory concentration (MIC) values were determined by using a microdilution assay with paromomycin and gentamicin as controls, and the results are presented in Table 18 hereinabove.
(§5) The bacterial strains used were Escherichia coli ATCC 25922, and Bacillus Subtilis ATCC 6633. […] All the experiments were performed in triplicates and analogous results were obtained in two to four different experiments.

[5] = tested on: Bacillus Subtilis ATCC 6633; test: as above; type: cell-based; conditions: Bacillus subtilis
Method: as §4, §5

human fibroblast cells = conditions: cited from earlier work
[6] = available toxicity data on aminoglycosides; unit inferred; cited from earlier work
stop mutations = conditions: literature; cited from earlier work
[7] = ATCC25922, ATCC 25922, read-out: MIC E. coli
[8] = ATCC6633, ATCC 6633, read-out: MIC B. Subtilis

Row | MIC [4, 7] [µg/mL] | MIC [5, 8] [µg/mL] | Structure (SMILES) | Conc. (concentration at which maximal suppression level was observed) [1] [µg/mL] | Supp. level (%), maximal in-vitro mutation suppression [1] [%] | Trans. level (%) [1] [%] | LD50 [6] [mg/kg] | also measured
1 | – | – | NC1CC(N)[C@@H](O[C@H]2OC(CO)[C@@H](O)C(O)C2N)C(O)C1O (stereo partly shown) [Compound 1, Paromamine] | 80 | 6.2 | 74 ± 15 | – | Supp. level (%), maximal in-vitro mutation suppression ([1]; listed as Paromamine): 6.2 ± 0.2%; Maximum in vitro suppression (%) R3X [2]: 0.6 ± 0.1%; Conc. (μM) at which maximum suppression level was achieved ([3]; dual luciferase in vitro system, all constructs of Table 21): 490 µM; Maximum in vitro suppression (%) UGAC ([3]; p2luc): 1.1 ± 0.1%; MIC ([4]; ATCC25922, read-out: MIC E. coli): 512 µg/mL (≈ 1580 µM); MIC ([5]; ATCC6633, read-out: MIC B. Subtilis): 128 µg/mL (≈ 396 µM)
2 | 256 (≈ 562 µM) | 64 (≈ 141 µM) | NC1C[C@@H](N)[C@@H](O)[C@@H](O[C@@H]2O[C@H](CO)[C@H](O)C2O)[C@@H]1O[C@H]1OC(CO)[C@@H](O)[C@H](O)[C@@H]1N (stereo partly drawn) [Compound 2, (3S,4R,5S,6S)-5-amino-6-((1R,2R,3R,4R)-4,6-diamino-2-((2S,4R,5R)-3,4-dihydroxy-5-(hydroxymethyl)-tetrahydrofuran-2-yloxy)-3-hydroxycyclohexyloxy)-2-(hydroxymethyl)-tetrahydro-2H-pyran-3,4-diol] | 80 | 1.3 ± 0.1 | 100 ± 10 | – | –
3 | 256 (≈ 562 µM) | 96 (≈ 211 µM) | NC1C[C@@H](N)[C@@H](O[C@@H]2O[C@H](CO)[C@H](O)C2O)[C@@H](O)[C@@H]1O[C@H]1OC(CO)[C@@H](O)[C@H](O)[C@@H]1N (stereo partly drawn) [Compound 4, (3S,4R,5S,6S)-5-amino-6-((1R,2S,3R,4R)-4,6-diamino-3-((2R,4R,5R)-3,4-dihydroxy-5-(hydroxymethyl)-tetrahydrofuran-2-yloxy)-2-hydroxycyclohexyloxy)-2-(hydroxymethyl)-tetrahydro-2H-pyran-3,4-diol] | 80 | 1.5 ± 0.1 | 74 ± 7 | – | –
4 | > 512 | 192 (≈ 422 µM) | NC[C@H]1O[C@@H](OC2C(O)[C@H](O[C@H]3OC(CO)[C@@H](O)C(O)C3N)C(N)C[C@H]2N)C(O)C1O (stereo partly shown) [Compound 5] | 80 | 4.4 ± 2 | 75 ± 9 | – | –
5 | 192 (≈ 422 µM) | 48 (≈ 106 µM) | NC[C@H]1O[C@@H](OC2C(N)[C@@H](O[C@@H]3C(N)C[C@@H](N)C(O)C3O)OC(CO)[C@H]2O)C(O)C1O (stereo partly shown) [Compound 7] | 80 | 2.9 ± 2 | 98 ± 10 | – | –
6 | 192 (≈ 596 µM) | 48 (≈ 149 µM) | NC1C(N)[C@H](O)C(CO)O[C@@H]1O[C@@H]1C(N)C[C@@H](N)C(O)C1O (stereo partly shown) [Compound 8] | 80 | 2.0 ± 2 | 71 ± 7 | – | fold lower antimicrobial activity as compared to paromomycin ([4]; from Table 18, E. coli and B. subtilis): 6-16 fold
7 | 96 (≈ 146 µM) | 48 (≈ 72.9 µM) | NC1C(OCOC2C(N)[C@H](O[C@H]3C(N)C[C@H](N)C(O)C3O)OC(CO)[C@@H]2O)[C@H](O)C(CO)O[C@@H]1O[C@@H]1C(N)C[C@@H](N)C(O)C1O (stereo partly shown) [Compound 9] | 80 | <1 | 22 ± 2 | – | –
8 | – | – | CN[C@@H]1[C@@H](O)[C@@H](O[C@@H]2[C@@H](O)[C@H](O[C@H]3O[C@H]([C@@H](C)O)[C@@H](O)[C@H](O)[C@H]3N)[C@@H](N)C[C@H]2N)OC[C@]1(C)O [Compound G-418, G-418] | – | – | – | – | LD50 against human fibroblast cells (human fibroblast cells; ref [49]): 0.04 mg/mL
9 | – | – | NCCC(O)C(=O)NC1CC(N)C(OC2OC(CN)C(O)C(O)C2N)C(O)C1O (stereo not shown) [N1-AHB-neamine] | – | – | – | 260 | –
10 | – | – | NCC[C@H](O)C(=O)N[C@@H]1C[C@H](N)[C@@H](O[C@H]2O[C@H](CN)[C@@H](O)[C@H](O)[C@H]2O)[C@H](O)[C@H]1O[C@H]1O[C@H](CO)[C@@H](O)[C@H](N)[C@H]1O [amikacin] | – | – | – | 300 | –
11 | – | – | NC[C@@H]1O[C@@H](O[C@H]2[C@H](O)[C@@H](O[C@H]3O[C@H](CO)[C@@H](O)[C@H](N)[C@H]3O)[C@H](N)C[C@@H]2N)[C@@H](O)[C@H](O)[C@H]1O [kanamycin A] | – | – | – | 280 | stop mutations suppression / read-through activity (stop mutations): does not show any read-through activity
12 | – | – | NC[C@H]1O[C@H](O[C@H]2[C@H](O)[C@@H](O[C@H]3O[C@H](CO)[C@@H](O)[C@H](N)[C@H]3O)[C@H](N)C[C@@H]2N)[C@H](N)[C@@H](O)[C@@H]1O [kanamycin B] | – | – | – | 132 | –
13 | – | – | N[C@@H]1[C@@H](O)[C@@H](O[C@@H]2[C@@H](O)[C@H](O[C@H]3O[C@H](CO)[C@@H](O)[C@H](O)[C@H]3N)[C@@H](N)C[C@H]2N)O[C@H](CO)[C@H]1O [kanamycin C] | – | – | – | 225 | –
14 | – | – | NC[C@H]1O[C@H](O[C@H]2[C@H](O)[C@@H](O[C@H]3O[C@H](CO)[C@@H](O)[C@H](N)[C@H]3O)[C@H](N)C[C@@H]2N)[C@H](O)[C@@H](O)[C@@H]1O [kanamycin] | – | – | – | – | LD50 against human fibroblast cells (human fibroblast cells): 2.5 to 5.0 mg/mL
15 | – | – | NC[C@H]1O[C@H](O[C@H]2[C@H](O)[C@@H](O)[C@H](N)C[C@@H]2N)[C@H](N)[C@@H](O)[C@@H]1O [neamine] | – | – | – | 125 | –
